From PMC10810651, “Discovery of novel and potent CDK8 inhibitors for the treatment of acute myeloid leukaemia” (Journal of Enzyme Inhibition and Medicinal Chemistry, 2024) come the findings set out here.

Each structure is given as a SMILES string.

Assay [1] has as its target CDK8 (Homo sapiens, UniProt P49336). Description: CDK8 enzyme activity assay (ADP-Glo Kinase Assay). The assay is classed as biochemical. The note with it: means ± SD; for inhibition at 0.2 µM: CDK8, 200 nM, two experiments, read-out: Inhibition rate @ 200 nM (%); for IC50: three experiments. The procedure:
Some of them with high inhibition rates were further measured for their IC50 values. Compound SEL-120 34 A was selected as a positive control. [table] [table] page 14: CO2 atmosphere incubator for 24 h. Then, medium with compound at the concentrations of 100, 20, 4, 0.8, 0.016 μM was added into each well for another 48 h and incubated with CCK-8 (10 μL) for 2 h at 37 °C. The absorbance value at 450 nm was measured by the microplate reader (PerkinElmer Envision). 1.4 Kinase Assay The kinase inhibition was detected by ADP-Glo™ Kinase Assay (Promega) using a black 384-well plate. The active CDK8 kinase was diluted in mixture (5 ng enzyme, 0.5 μg substrate, 50 μM DTT, 1 μL reaction buffer and added ddH2O to 3 μL each well) and the final ATP concentrations of was 50 μM. After incubation at room temperature, ADP-Glo™ solution and kinase detection reagent was added. The data was collected by the microplate reader. 1.5 Cellular thermal shift assay HCT-116 cells were cultured in cell culture dishes and treated with 5 μM compound 12 for 4 h. HCT-116 cells were collected, washed by PBS and cell suspensions were divided into 12 PCR tubes equally. Then,11 tubes were heated at 37, […] After that, cells were broken by ultr asonic treatment and centrifuged at 12000 rpm for 20 min. The supernatant was analyzed by western blot. 1.6 Biotin-pulldown assay After co-treated with 2 μM biotinylated compound and compound 12 for 12 h, HCT-116 cells were lysed with NP-40 containing PMSF and centrifuged at 14000 r for 30 min at 4 °C. Then, 40 μL supernatant was used as the input by adding 10 μL 5×SDS loading buffer, and the remains were mixed with Streptavidin Agarose (Novex, Carlsbad, CA, USA). After 6 h incuba tion at 4 °C, the beads were washed three times using lysis buffer and resuspended in 2× SDS loading buffer. HEK -293T cells overexpressed flag -tagged CDK8 were treated using above method. The samples were analyzed by western blot.
On the technique in general: In ADP-Glo the light output rises with the ADP produced.

Assay [2] has as its system molm-13. Description: Antiproliferative CCK-8 assay, molm-13. The following applies: Homo sapiens; molm-13, CCK-8 assay, means ± SD; read-out: GC50 (the source's name). It is filed as cell-based. An excerpt:
(§1) Compounds12, 13 and 30 were selected for further cell activity assessments based on the enzymatic activity assessment results. molm-13 and MV4-11(acute myeloid lineage leukaemia cells), MGC-803 (gastric cancer cell), MDA-MB-231(breast cancer cell), A375 (melanoma cell), A549 (lung cancer cell), HCT-116, SW-480 and HT-29 (colorectal cancer cells) were selected to evaluate antitumor activity in vitro, GES-1 (gastric mucosal epithelial cell) was selected to evaluate toxicity in vitro.
(§2) CO2 atmosphere incubator for 24 h. Then, medium with compound at the concentrations of 100, 20, 4, 0.8, 0.016 μM was added into each well for another 48 h and incubated with CCK-8 (10 μL) for 2 h at 37 °C. The absorbance value at 450 nm was measured by the microplate reader (PerkinElmer Envision). […]
Background: Tetrazolium dyes change colour on reduction, which living cells bring about.

Assay [3] deals with MV4-11. The assay is described as follows: Antiproliferative CCK-8 assay, MV4-11. The note with it: Homo sapiens; MV4-11, CCK-8 assay, means ± SD; read-out: GC50 (the source's name). It is filed as cell-based.
Excerpt: as §1, §2

For assay [4], the system named is MGC-803. The assay is described as follows: Antiproliferative CCK-8 assay, MGC-803. It is filed as cell-based. The following applies: Homo sapiens; MGC-803, CCK-8 assay, means ± SD; read-out: GC50 (the source's name).
Excerpt: as §1, §2

The test system of assay [5] is MDA-MB-231. Description: Antiproliferative CCK-8 assay, MDA-MB-231. The assay is classed as cell-based. The following applies: Homo sapiens; MDA-MB-231, CCK-8 assay, means ± SD; read-out: GC50 (the source's name).
Excerpt: as §1, §2

The subject of assay [6] is A375. Description: Antiproliferative CCK-8 assay, A375. The note with it: Homo sapiens, A-375; A375, CCK-8 assay, means ± SD; read-out: GC50 (the source's name). It is filed as cell-based.
Excerpt: as §1, §2

In assay [7] the test system is A549. The assay is described as follows: Antiproliferative CCK-8 assay, A549. It is filed as cell-based. The note with it: Homo sapiens; A549, CCK-8 assay, means ± SD; read-out: GC50 (the source's name).
Excerpt: as §1, §2

In assay [8] the test system is HCT-116. Description: Antiproliferative CCK-8 assay, HCT-116. It is filed as cell-based. The note with it: Homo sapiens; HCT-116, CCK-8 assay, means ± SD; read-out: GC50 (the source's name).
Excerpt: as §1, §2

For assay [9], the system named is SW480. The assay is described as follows: Antiproliferative CCK-8 assay, SW480. The assay is classed as cell-based. The following applies: Homo sapiens; SW480, CCK-8 assay, means ± SD; read-out: GC50 (the source's name).
Excerpt: as §1, §2

The test system of assay [10] is HT-29. Description: Antiproliferative CCK-8 assay, HT-29. The assay is classed as cell-based. The following applies: Homo sapiens; HT-29, CCK-8 assay, means ± SD; read-out: GC50 (the source's name).
Excerpt: as §1, §2

Assay [11] concerns GES-1. Description: In vitro toxicity CCK-8 assay, GES-1. The assay is classed as cell-based. The note with it: Homo sapiens, GES1, GES-1 gastric mucosal epithelial cell, read-out: GC50 (the source's name).
Excerpt: as §1, §2

CDK8, sequence (P49336 whole entry): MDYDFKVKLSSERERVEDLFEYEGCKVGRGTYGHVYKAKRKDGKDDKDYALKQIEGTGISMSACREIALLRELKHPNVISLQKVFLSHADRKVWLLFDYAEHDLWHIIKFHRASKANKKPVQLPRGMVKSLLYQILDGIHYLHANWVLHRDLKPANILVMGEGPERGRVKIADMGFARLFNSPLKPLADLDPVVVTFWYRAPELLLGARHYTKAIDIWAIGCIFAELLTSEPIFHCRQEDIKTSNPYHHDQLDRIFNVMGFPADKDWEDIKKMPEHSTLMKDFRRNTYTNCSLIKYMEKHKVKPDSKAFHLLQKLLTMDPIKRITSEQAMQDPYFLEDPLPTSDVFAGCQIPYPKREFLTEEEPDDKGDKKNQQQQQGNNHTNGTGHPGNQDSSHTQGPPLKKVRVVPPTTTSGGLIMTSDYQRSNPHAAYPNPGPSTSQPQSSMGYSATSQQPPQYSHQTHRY
CDK8, sequence (P24863 whole entry partner): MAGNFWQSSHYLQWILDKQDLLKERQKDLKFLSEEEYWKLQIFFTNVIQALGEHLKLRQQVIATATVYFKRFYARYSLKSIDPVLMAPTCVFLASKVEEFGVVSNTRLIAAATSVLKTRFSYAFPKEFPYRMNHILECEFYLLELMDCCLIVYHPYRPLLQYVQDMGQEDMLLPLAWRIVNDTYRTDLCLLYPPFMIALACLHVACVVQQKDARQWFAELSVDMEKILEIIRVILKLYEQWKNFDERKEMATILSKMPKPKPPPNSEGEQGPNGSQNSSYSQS

Consider `NC(=O)c1cccc(-c2cnc3[nH]cc(-c4cccc(Cl)c4)c3c2)c1` [Compound 30], for which the inhibition at 0.2 µM in assay [1] worked out at 65.5 ± 3.8%. The IC50 in [1] is 86.7 ± 6.5 nM; in assay [2], above 50000 nM; in [3], above 50000 nM; in assay [4], above 50 µM; in assay [5], above 50 µM; in assay [6], above 50 µM. Besides, the IC50 in assay [7] was above 50 µM; in [8] it was above 50 µM; in assay [9] it was above 50 µM; in assay [10], above 50 µM; in assay [11], above 100 µM.
Take `Cc1c(Br)c(Br)c2c3c1nc(N1CCNCC1)n3CCC2` [SEL-120-34A, reference compound]: the inhibition at 0.2 µM in assay [1] was 82.5 ± 5.8%. For the same compound, the IC50 in assay [1] is 37.2 ± 2.5 nM; in assay [2], 20 ± 10 nM; in [3] it was 7 ± 1 nM; in assay [4] it was 16.3 ± 1.86 µM; in [5], 9.6 ± 0.81 µM; in assay [6], 5.9 ± 1.43 µM. Also, the IC50 was determined as 12.1 ± 0.37 µM in [7]; 11.3 ± 1.9 µM in assay [8]; 17.7 ± 2.1 µM in [9]; 33.8 ± 1.4 µM in assay [10]; 55.3 ± 3.2 µM in [11].

By inhibition is commonly meant the relative decrease from the control value, in per cent.
